Data taken from US12043601B2, “N-substituted-1H-1,2,4-triazole-3-carboxamides, analogues thereof, and methods of treatment using same” (THE REGENTS OF THE UNIVERSITY OF COLORADO, priority 2018, dated 2024).
≈ marks a conversion by molar mass, not a printed value. Where “and” joins values, the source holds several entries; their conditions need not be identical. Identical values can stand only once. Entries after “also recorded” stand apart in the source; their conditions may differ. Like-named read-outs stand apart in the source and are kept apart here.

Key:
DksA [1] = biological target: T1, DksA (Salmonella typhimurium, UniProt P0A1G5); assay: DksA-mediated repression of rpsM in vitro transcription (IVT, qRT-PCR); type: biochemical
T1 sequence (P0A1G5 whole entry): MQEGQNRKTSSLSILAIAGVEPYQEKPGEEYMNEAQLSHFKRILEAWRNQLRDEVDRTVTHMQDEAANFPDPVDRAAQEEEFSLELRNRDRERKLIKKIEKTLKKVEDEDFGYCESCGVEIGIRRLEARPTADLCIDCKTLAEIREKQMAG
Procedure: (§1) To measure the potency of a compound in inhibition of DksA biological function, rpsMtranscripts in vitro was determined by non-radioactive in vitro transcription reactions with qPCR analysis with divergent compounds. Briefly, 5 nM pTIM-rpsMplasmid was mixed with 0.1-100 nM of compounds in 10 μl reaction buffer (40 mM HEPES [pH 7.4], 2 mM MgCl2, 60 mM potassium glutamate, 0.05% NP-40, 200 μM ATP, 200 μM GTP, 200 μM CTP, 200 μM UTP, and 5 nM E. coli RNA polymerase holoenzyme (NEB, Ipswich, MA) with 5 μM DksA. The in vitro transcription was carried out at 37° C. for 10 min, and then terminated at 70° C. for 10 min. To remove template DNA after treated with DNaseI, DNA-free DNA Removal kit (ThermoFisher) was used according to manufacturer's direction. The resulting materials were used as templates to generate cDNA with 100 U MMLV reverse transcriptase (Promega), 0.45 μM gene specific primer, and 20 U RNase inhibitor (Promega). The amount of cDNA synthesized for 1 h at 42° C. was quantified by real-time PCR (qRT-PCR). The copy number of specific transcripts was calculated to the standard curve generated with known gene copy concentrations. The IC50 is the concentration at which the curve passes through the 50% inhibition level. Standard deviation was calculated from 3 independent experiments.
The compounds obtained in this screen were further analyzed for binding to the acidic pocket at the tip of DksA coiled-coil domain using the computer search program Dock. The analysis identified over 400 compounds. A panel of 40 compounds was selected from the top hits based on free energy binding scores. These compounds were investigated using the computer modeling program O. Two additional criteria were applied in order to narrow down the list of candidates: First, the compounds needed to fit deep into the pocket without any clashes; and second, the compounds bound to DksA should have minimal exposed moieties. The compounds selected were further refined according to energy minimization as calculated by the CNS program. 23 compounds were obtained from MolPort and they were tested for their ability to interfere with DksA in a high throughput screen that combined in vitro transcription with highly specific and quantitative qRT-PCR. Five of these compounds, including N-(3,4-dimethoxyphenyl)-1H-1,2,4-triazole-3-carboxamide (1), prevented DksA-mediated repression of rpsM in vitro transcription to some degree. […] Without intending to be limited to any particular theory, the effect that 1 has on DksA-dependent rpsM or hisG gene transcription is potentially due to differences in promoter activity.
(§2) The compounds were initially tested at 0.1 μM and 1 μM using as a target the promoter of the livJ gene that encodes a transporter of branch-chain amino acids (Table 4).

DksA [2] = biological target: T1, DksA; assay: DksA-dependent livJ in vitro transcription; type: biochemical; settings: livJ promoter; for IVT: concentration showing activity
Procedure: as §1, §2

DksA [3] = biological target: T1, DksA; assay: DksA-dependent activation of hisG in vitro transcription; type: biochemical; settings: as little as 0.1 μM
Procedure: To measure the potency of a compound in inhibition of DksA biological function, rpsMtranscripts in vitro was determined by non-radioactive in vitro transcription reactions with qPCR analysis with divergent compounds. […] The amount of cDNA synthesized for 1 h at 42° C. was quantified by real-time PCR (qRT-PCR). The copy number of specific transcripts was calculated to the standard curve generated with known gene copy concentrations. […] Standard deviation was calculated from 3 independent experiments.
The compounds obtained in this screen were further analyzed for binding to the acidic pocket at the tip of DksA coiled-coil domain using the computer search program Dock. […] The compounds selected were further refined according to energy minimization as calculated by the CNS program. 23 compounds were obtained from MolPort and they were tested for their ability to interfere with DksA in a high throughput screen that combined in vitro transcription with highly specific and quantitative qRT-PCR. […]

Salmonella strain 14028s [4] = assay: Minimum inhibitory concentration in EG minimal media; type: cell-based, Salmonella Typhimurium; settings: for Growth in EG at concentration tested 1 μg/ml / Growth in EG at concentration tested 2 μg/ml / Growth in EG at concentration tested 4 μg/ml / Growth in EG at concentration tested 8 μg/ml / Growth in EG at concentration tested 16 μg/ml: EG minimal media, 37° C.
Procedure: (§3) DksA controls transcription of metabolic and virulence genes, allowing bacteria to both grow in minimum media and cause disease. Inhibition of bacterial growth in EG minimum media was used as an easy and reliable proxy of the DksA-dependent regulation of metabolism.
In a non-limiting example, wild-type Salmonella strain 14028s was grown overnight (18.5 h), and then diluted in EG minimal media to a density of about 10^5 CFU/mL. […] Each test tube was incubated at 37° C. with shaking for 18 h and bacterial growth was evaluated. The MIC value was determined as the lowest concentration of compound that inhibited growth.

E. coli strain 3110 = assay: Minimum inhibitory concentration in EG minimum media, E. coli; type: cell-based; settings: Escherichia coli
Description: as §3

[5] = tested on: intracellular Salmonella in J774 macrophage-like cells; assay: Intracellular growth of Salmonella in macrophages; type: cell-based; settings: for Antimicrobial activity against intracellular Salmonella growing in macrophages: J774 cells, cell culture media containing 10% fetal bovine serum
J774 cells = assay: Lactate dehydrogenase (LDH) release from infected host cells; type: cell-based; settings: 32 μg/ml; 18 h after infection with wild-type or ΔdksA Salmonella; p=0.3
Compound solubility = type: physicochemical; settings: for Compound Solubility, 1 μM: solvent at 1 μM; for Compound Solubility, 10 μM: solvent at 10 μM; for Compound Solubility, 100 μM: solvent at 100 μM; for Compound Solubility, 1 mM: solvent at 1 mM; for Compound Solubility, 10 mM: solvent at 10 mM; for Compound Solubility, 16 mg/ml: solvent at 16 mg/ml
Salmonella = assay: Disk diffusion assay; type: cell-based; settings: among drugs that inhibited DksA function in the in vitro screens
Procedure: Salmonella was grown overnight in LB broth at 37° C. with shaking. The bacterial cultures were diluted by 1:1000 with PBS. 100 μl of the diluted samples were transferred into E-salts glucose agar. The bacteria were spread on the surface of the agar. Two discs (BBL blank paper discs 6 mm) were placed per/plate, and 10 μl of 10 mM or 100 mM stock compound were added to the discs. The plates were incubated at 37° C. overnight. The diameter of inhibition was expressed in mm.

SPI2 effector sifA = assay: Intracellular expression of SPI2 effector sifA in infected macrophages; type: cell-based; settings: Salmonella-infected macrophages, 16 μg/ml
[6] = tested on: T2, E. coli RNA polymerase holoenzyme; assay: rpsM in vitro transcription by RNA polymerase itself; type: biochemical; settings: up to 10 μM
T2 construct: purchased NEB, Ipswich, MA
T2 sequence (P0A7Z4 whole entry): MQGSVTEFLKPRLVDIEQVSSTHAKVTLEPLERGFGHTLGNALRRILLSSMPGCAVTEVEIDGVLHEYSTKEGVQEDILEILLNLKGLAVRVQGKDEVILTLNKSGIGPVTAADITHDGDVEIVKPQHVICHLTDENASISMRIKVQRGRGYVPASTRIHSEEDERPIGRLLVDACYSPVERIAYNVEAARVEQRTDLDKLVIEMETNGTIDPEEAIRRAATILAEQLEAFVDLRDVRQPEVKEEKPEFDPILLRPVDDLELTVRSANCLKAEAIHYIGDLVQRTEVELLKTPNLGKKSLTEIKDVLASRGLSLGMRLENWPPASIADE
T2 sequence (P0A8V2 whole entry, further chain): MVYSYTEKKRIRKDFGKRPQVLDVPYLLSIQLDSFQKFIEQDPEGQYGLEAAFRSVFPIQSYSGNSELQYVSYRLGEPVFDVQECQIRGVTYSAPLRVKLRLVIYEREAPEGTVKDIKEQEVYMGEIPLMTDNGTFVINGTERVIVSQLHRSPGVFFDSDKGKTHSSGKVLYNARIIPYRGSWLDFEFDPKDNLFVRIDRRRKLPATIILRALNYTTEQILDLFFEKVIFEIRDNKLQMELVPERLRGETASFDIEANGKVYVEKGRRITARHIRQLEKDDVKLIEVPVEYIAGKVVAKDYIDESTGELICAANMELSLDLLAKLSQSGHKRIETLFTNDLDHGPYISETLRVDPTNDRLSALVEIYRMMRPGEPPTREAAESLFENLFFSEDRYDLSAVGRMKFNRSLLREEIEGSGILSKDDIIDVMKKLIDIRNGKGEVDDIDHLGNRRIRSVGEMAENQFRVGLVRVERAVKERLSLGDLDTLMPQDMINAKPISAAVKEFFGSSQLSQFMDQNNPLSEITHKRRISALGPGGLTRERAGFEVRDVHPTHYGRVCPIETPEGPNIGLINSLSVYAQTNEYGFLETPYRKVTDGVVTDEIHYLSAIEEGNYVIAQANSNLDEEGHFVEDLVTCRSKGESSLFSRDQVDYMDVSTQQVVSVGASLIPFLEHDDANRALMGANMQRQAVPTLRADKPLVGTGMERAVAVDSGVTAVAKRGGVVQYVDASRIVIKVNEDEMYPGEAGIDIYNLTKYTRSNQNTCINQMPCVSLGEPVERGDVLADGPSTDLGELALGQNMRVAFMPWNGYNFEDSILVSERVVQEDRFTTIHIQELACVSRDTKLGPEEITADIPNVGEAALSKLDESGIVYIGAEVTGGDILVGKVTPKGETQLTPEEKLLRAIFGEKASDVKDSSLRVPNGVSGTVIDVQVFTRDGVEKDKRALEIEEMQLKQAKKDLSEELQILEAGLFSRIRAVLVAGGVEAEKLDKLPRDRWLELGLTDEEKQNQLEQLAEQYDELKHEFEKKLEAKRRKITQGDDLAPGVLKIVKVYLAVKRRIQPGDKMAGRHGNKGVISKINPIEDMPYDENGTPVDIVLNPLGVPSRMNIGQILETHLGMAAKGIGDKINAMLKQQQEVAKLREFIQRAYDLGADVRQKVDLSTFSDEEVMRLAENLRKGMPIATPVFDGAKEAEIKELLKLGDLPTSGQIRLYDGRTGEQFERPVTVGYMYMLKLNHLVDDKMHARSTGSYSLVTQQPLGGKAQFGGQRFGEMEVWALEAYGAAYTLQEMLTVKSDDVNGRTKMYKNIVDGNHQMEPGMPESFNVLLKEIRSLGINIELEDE
T2 sequence (P0A8T7 whole entry, further chain): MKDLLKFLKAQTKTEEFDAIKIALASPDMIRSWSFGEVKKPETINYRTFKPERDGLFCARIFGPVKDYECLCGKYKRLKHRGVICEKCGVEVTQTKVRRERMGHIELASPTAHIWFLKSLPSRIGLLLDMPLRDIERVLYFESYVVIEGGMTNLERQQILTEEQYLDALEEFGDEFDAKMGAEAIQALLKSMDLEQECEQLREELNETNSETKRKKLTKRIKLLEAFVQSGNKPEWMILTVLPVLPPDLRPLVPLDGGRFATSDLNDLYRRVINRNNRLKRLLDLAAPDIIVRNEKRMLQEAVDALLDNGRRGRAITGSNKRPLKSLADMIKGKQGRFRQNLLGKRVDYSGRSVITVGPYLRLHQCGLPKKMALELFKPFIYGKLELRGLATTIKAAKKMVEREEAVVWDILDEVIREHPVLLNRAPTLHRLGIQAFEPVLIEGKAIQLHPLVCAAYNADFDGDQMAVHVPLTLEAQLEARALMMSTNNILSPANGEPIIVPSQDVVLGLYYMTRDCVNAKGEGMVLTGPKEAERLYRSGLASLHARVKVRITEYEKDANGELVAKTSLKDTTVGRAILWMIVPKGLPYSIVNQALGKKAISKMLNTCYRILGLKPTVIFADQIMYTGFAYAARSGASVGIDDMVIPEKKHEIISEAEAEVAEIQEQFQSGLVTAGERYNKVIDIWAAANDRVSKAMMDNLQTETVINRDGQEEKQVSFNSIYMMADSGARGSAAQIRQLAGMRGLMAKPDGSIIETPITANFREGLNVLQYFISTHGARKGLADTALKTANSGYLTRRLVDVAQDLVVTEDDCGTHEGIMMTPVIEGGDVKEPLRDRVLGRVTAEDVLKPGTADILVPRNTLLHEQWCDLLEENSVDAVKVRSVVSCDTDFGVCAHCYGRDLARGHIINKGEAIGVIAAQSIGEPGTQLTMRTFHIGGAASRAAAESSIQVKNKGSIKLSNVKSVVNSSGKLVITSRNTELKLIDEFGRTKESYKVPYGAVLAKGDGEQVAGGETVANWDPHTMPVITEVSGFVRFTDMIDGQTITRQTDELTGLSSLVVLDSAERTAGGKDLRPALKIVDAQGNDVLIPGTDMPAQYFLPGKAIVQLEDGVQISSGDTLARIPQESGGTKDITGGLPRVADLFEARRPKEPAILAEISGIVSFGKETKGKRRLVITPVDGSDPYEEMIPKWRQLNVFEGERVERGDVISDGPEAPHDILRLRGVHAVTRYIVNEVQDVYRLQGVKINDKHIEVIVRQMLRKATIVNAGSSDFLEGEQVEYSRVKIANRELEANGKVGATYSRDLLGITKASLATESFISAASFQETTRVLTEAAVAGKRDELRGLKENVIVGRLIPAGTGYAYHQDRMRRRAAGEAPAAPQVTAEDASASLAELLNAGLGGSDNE
T2 sequence (P0A800 whole entry, further chain): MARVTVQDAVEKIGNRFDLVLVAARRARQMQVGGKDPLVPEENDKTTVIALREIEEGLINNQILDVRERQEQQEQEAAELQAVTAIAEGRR
T2 sequence (P00579 whole entry, further chain): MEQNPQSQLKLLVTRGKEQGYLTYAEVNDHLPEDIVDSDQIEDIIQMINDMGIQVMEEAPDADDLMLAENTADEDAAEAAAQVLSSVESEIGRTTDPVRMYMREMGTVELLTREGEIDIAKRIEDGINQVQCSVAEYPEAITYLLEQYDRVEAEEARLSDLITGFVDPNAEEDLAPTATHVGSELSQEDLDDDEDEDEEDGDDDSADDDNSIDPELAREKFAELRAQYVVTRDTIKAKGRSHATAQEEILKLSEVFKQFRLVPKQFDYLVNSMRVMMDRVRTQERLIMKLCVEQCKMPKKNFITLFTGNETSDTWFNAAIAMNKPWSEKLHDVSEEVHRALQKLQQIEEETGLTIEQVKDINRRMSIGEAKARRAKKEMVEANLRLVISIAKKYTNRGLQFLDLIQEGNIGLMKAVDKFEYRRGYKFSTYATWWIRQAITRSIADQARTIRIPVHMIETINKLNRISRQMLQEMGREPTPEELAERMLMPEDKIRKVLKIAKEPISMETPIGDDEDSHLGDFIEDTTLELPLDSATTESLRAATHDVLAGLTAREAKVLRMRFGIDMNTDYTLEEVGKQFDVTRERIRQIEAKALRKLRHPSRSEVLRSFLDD
Procedure: as §1, with “Briefly, 5 nM pTIM-rpsMplasmid was mixed with 0.1-100 nM of compounds in 10 μl reaction buffer (40 mM HEPES [pH 7.4], 2 mM MgCl2, 60 mM potassium glutamate, 0.05% NP-40, 200 μM ATP, 200 μM GTP, 200 μM CTP, 200 μM UTP, and 5 nM E. coli RNA polymerase holoenzyme (NEB, Ipswich, MA) with 5 μM DksA.” left out
The compounds obtained in this screen were further analyzed for binding to the acidic pocket at the tip of DksA coiled-coil domain using the computer search program Dock. The analysis identified over 400 compounds. […] The compounds selected were further refined according to energy minimization as calculated by the CNS program. […]

Salmonella strain 14028s [7] = assay: Growth and survival assay in combination with antibiotics that target DNA replication; type: cell-based; settings: #21 8 μg/ml, #23 16 μg/ml; EG media, 37° C., 20 hrs
Procedure: Salmonella strain 14028s was grown overnight at 37° C. with shaking in LB broth. Cell density was measured by spectrometer by following OD600. Cells were centrifuged and washed once with EG Minimal Salts Media (57.4 mM K2HPO4, 1.7 mM MgSO4, 9.5 mM Citric acid, 16.7 mM H5NNaPO4, and 0.4% D-Glucose, pH 7.0). The specimens were then resuspended with EG media and adjusted to the final concentration of 1×10^5/ml.
One hundred microliters of the cell dilution were plated onto LB agar plate to verify the starting concentration. Ten 5-ml cell culture tubes were prepared, and the diluted cells were transferred to the culture tubes at 1 ml/tube. The first culture tube was reserved as the control. The remaining nine tubes were divided into 3 groups (3 tubes each), which were treated with Nitrofurazone, 4-Nitroquinoline N-oxide, and Mitomycin C at 8 μM, 8 μM, and 0.75 μM, respectively. Within each group, two of the tubes additionally received compounds #21 or #23 at 8 μg/ml and 16 μg/ml, respectively. All tubes were then incubated with shaking at 37° C. for 20 hrs. Cells were collected, diluted, plated on LB agar plates, and subsequently counted. Survival percentages were calculated using bacteria counts divided by starting concentration.

| Structure (SMILES) | In vitro transcription assay result, 0.1 μM (DksA [2]) | In vitro transcription assay result, 1 μM (DksA [2]) | IVT (DksA [2]) [µM] | Growth in EG at concentration tested 1 μg/ml (Salmonella strain 14028s [4]; 18 h) | Growth in EG at concentration tested 2 μg/ml (Salmonella strain 14028s [4]; 18 h) | Growth in EG at concentration tested 4 μg/ml (Salmonella strain 14028s [4]; 18 h) | Growth in EG at concentration tested 8 μg/ml (Salmonella strain 14028s [4]; 18 h) | Growth in EG at concentration tested 16 μg/ml (Salmonella strain 14028s [4]; 18 h) | MIC (Salmonella strain 14028s [4]; Salmonella, 14028S, 18 h) [µg/mL] | Compound Solubility, 1 μM (Compound solubility) | Compound Solubility, 10 μM (Compound solubility) | Compound Solubility, 100 μM (Compound solubility) | Compound Solubility, 1 mM (Compound solubility) | Compound Solubility, 10 mM (Compound solubility) | Compound Solubility, 16 mg/ml (Compound solubility) | other results |
| --- | --- | --- | --- | --- | --- | --- | --- | --- | --- | --- | --- | --- | --- | --- | --- | --- |
| COc1ccc(NC(=O)c2nc[nH]n2)cc1OC [Compound 1, N-(3,4-dimethoxyphenyl)-1H-1,2,4-triazole-3-carboxamide] | no change | good repression | 1 | + | + | + | + | + | 32 (≈ 129 µM) | water | water | water | water | water | DMSO | Inhibition of DksA-mediated repression of rpsM in vitro transcription (DksA [1]; 1 μM): completely inhibited; Activity against DksA-mediated repression of rpsM in vitro transcription (DksA [1]; qualitative, listed as 916): excellent activity; also recorded: best in vitro efficacy; Inhibition of DksA-dependent activation of hisG in vitro transcription (DksA [3]): completely inhibited; MIC (Salmonella strain 14028s [4]; read-out: Minimum inhibitory concentration): 32 µg/mL and 129 µM; MIC (E. coli strain 3110): 32 µg/mL; MIC (E. coli strain 3110; converted): 129 µM; Antimicrobial activity against intracellular Salmonella growing in macrophages [5]: potent antimicrobial activity; Antimicrobial activity against intracellular Salmonella growing in macrophages ([5]; listed as 916): inhibits intracellular growth; Intracellular growth of ΔdksA Salmonella ([5]; ΔdksA Salmonella, off-target control): unaffected; Lactate dehydrogenase (LDH) released from J774 cells (J774 cells): did not change; Anti-Salmonella activity in disk diffusion assays (Salmonella): greatest anti-Salmonella activity; Intracellular expression of the SPI2 effector sifA (SPI2 effector sifA): repressed transcription; Intracellular expression of the SPI2 effector sifA (SPI2 effector sifA; listed as 916): inhibits the intracellular expression; Effect on rpsM in vitro transcription by the RNA polymerase itself [6]: did not affect |
| COc1ccc(CCNC(=O)c2nc[nH]n2)cc1 [Compound 21, N-(4-methoxyphenethyl)-1H-1,2,4-triazole-3-carboxamide] | no induction | no induction | 0.1 | + | + | + | + | + | 32 (≈ 130 µM) | water | water | water | water | water | DMSO | Anti-Salmonella activity of 4-nitroquinoline-N-oxide, nitrofurazone and mytomycin in combination (Salmonella strain 14028s [7]): enhanced the anti-Salmonella activity |
